Key:
[1] = system: Human immunodeficiency virus; assay: Antiviral activity against HIV with reverse transcriptase M184V mutation assessed as fold resistance relative to wild type; format: functional
[2] = system: Human immunodeficiency virus; assay: Antiviral activity against HIV with reverse transcriptase K65R mutation assessed as fold resistance relative to wild type; format: functional
[3] = system: Human immunodeficiency virus; assay: Antiviral activity against HIV with reverse transcriptase 6TAMs mutation assessed as fold resistance relative to wild type; format: functional
[4] = Cytotoxicity against human MT2 cells; format: cell-based
[5] = system: Human immunodeficiency virus 1; assay: Antiviral activity against wild type HIV1 3B in MT2 cells; format: functional, organism-based; conditions: Human immunodeficiency virus 1, 3B
[6] = molecular target: Human immunodeficiency virus type 1 reverse transcriptase (Human immunodeficiency virus 1, UniProt Q72547); assay: Inhibition of wild type HIV 3B reverse transcriptase

SMILES | Activity [1] | Activity [2] | Activity [3] | CC50 [4] | EC50 [5] | IC50 [6]
Nc1ncnc2c1ncn2[C@@H]1C=C[C@H](OCP(=O)(O)O)O1 | 7.1 | 3.6 | 13.7 | > 1000 µM | 5.9 µM | –
Cc1cn([C@H]2C[C@H](N=[N+]=[N-])[C@@H](CO)O2)c(=O)[nH]c1=O [ZIDOVUDINE] | 0.7 | 1.2 | >50 | > 200 µM | 0.16 µM | –
Nc1ncnc2c1ncn2[C@@H]1O[C@H](OCP(=O)(O)O)C=C1F [GS-9148] | 0.8 | 1.1 | 4.3 | > 1000 µM | – | 1.9 µM
Nc1ncnc2c1ncn2[C@H]1C=C[C@@H](OCP(=O)(O)O)O1 | 0.9 | 2.9 | 2.9 | > 1000 µM | 2.1 µM | 0.6 µM
C[C@H](Cn1cnc2c(N)ncnc21)OCP(=O)(O)O [TENOFOVIR ANHYDROUS] | 0.7 | 4.3 | 8.8 | > 500 µM | – | –

From ChEMBL document CHEMBL1143131, “Synthesis and anti-HIV activity of GS-9148 (2'-Fd4AP), a novel nucleoside phosphonate HIV reverse transcriptase inhibitor” (Bioorg Med Chem Lett, 2008)
